In ChEMBL document CHEMBL5512620, “Design and synthesis of forsythin derivatives as anti-inflammatory agents for acute lung injury” (Eur J Med Chem, 2024):

Tested on: RAW264.7
Test: Cytotoxicity activity mouse RAW264.7 cells assessed as effect on cell viability at 25 uM incubated for 24 hrs by MTT assay
Assay type: toxicity, cell-based
Conditions: raw264.7, 24 h

Row | Structure (SMILES) | Activity
1 | COc1ccc([C@@H]2OC[C@H]3[C@@H]2CO[C@@H]3c2ccc(O[C@H]3O[C@H](COC(=O)[C@H](CCSC)NC(=O)OC(C)(C)C)[C@@H](O)[C@H](O)[C@H]3O)c(OC)c2)cc1OC | Non-Toxic
2 | COc1ccc([C@@H]2OC[C@H]3[C@@H]2CO[C@@H]3c2ccc(O[C@H]3O[C@H](COC(=O)[C@H](CC(C)C)NC(=O)OC(C)(C)C)[C@@H](O)[C@H](O)[C@H]3O)c(OC)c2)cc1OC | Non-Toxic
3 | COc1ccc([C@@H]2OC[C@H]3[C@@H]2CO[C@@H]3c2ccc(O[C@H]3O[C@H](COC(=O)CNC(=O)OC(C)(C)C)[C@@H](O)[C@H](O)[C@H]3O)c(OC)c2)cc1OC | Non-Toxic
4 | COc1ccc([C@H]2OC[C@@H]3[C@H]2CO[C@@H]3c2ccc(O[C@@H]3O[C@@H](COC(=O)c4nccc5ccccc45)[C@H](O)[C@@H](O)[C@@H]3O)c(OC)c2)cc1OC (stereo in doubt) | Non-Toxic
5 | COc1ccc([C@@H]2OC[C@H]3[C@@H]2CO[C@@H]3c2ccc(O[C@H]3O[C@H](COC(=O)c4cn(-c5ccc(F)cc5)nn4)[C@@H](O)[C@H](O)[C@H]3O)c(OC)c2)cc1OC | Non-Toxic
6 | COc1ccc([C@H]2OC[C@@H]3[C@H]2CO[C@@H]3c2ccc(O[C@@H]3O[C@@H](COC(=O)c4cc5ccccc5cn4)[C@H](O)[C@@H](O)[C@@H]3O)c(OC)c2)cc1OC (stereo in doubt) | Non-Toxic
7 | COc1ccc([C@@H]2OC[C@H]3[C@@H]2CO[C@@H]3c2ccc(O[C@H]3O[C@H](COC(=O)c4cn(-c5ccc(C)cc5)nn4)[C@@H](O)[C@H](O)[C@H]3O)c(OC)c2)cc1OC | Non-Toxic
8 | COc1ccc([C@@H]2OC[C@H]3[C@@H]2CO[C@@H]3c2ccc(O[C@H]3O[C@H](COC(=O)[C@H](Cc4c[nH]c5ccccc45)NC(=O)OC(C)(C)C)[C@@H](O)[C@H](O)[C@H]3O)c(OC)c2)cc1OC | Non-Toxic
